The source of these data is patent publication US20250313549A1, “HERBICIDAL DERIVATIVES” (SYNGENTA CROP PROTECTION AG, priority 2021, published 2025).

What all share (assay): Post-emergence test, herbicidal damage
Common to all, as to assay type: in vivo
Settings in all cases: sprayed after 8 days cultivation, 1000 g/ha, evaluated after 13 days

The subject of assay [1] is Amaranthus palmeri (AMAPA). Here is the method:
(§1) Seeds of a variety of test species are sown in standard soil in pots (Amaranthus retoflexus (AMARE), Echinochloa crus-galli (ECHCG), Amaranthus palmeri (AMAPA), Setaria faberi (SETFA), Zea mays (ZEAMX), Ipomoea hederacea (IPOHE)). After 8 days cultivation under controlled conditions in a glasshouse (at 24° C./16° C., day/night; 14 hours light; 65% humidity), the plants are sprayed with an aqueous spray solution derived from the formulation of the technical active ingredient in acetone/water (50:50) solution containing 0.5% Tween 20 (polyoxyethylene sorbitan monolaurate, CAS RN 9005-64-5). Compounds are applied at 1000 g/ha unless otherwise stated. The test plants are then grown in a glasshouse under controlled conditions in a glasshouse (at 24° C./16° C., day/night; 14 hours light; 65% humidity) and watered twice daily. After 13 days the test is evaluated for the percentage damage caused to the plant. The biological activities are shown in the following table on a five-point scale (5=81-100%; 4=61-80%; 3=41-60%; 2=21-40%; 1=10-20%; 0=0%; -=not tested).

Assay [2] deals with Amaranthus retoflexus (AMARE). Here is the method: as §1
Assay [3] has as its system Echinochloa crus-galli (ECHCG). Here is the method:
as §1

The subject of assay [4] is Ipomoea hederacea (IPOHE). Here is the method: as §1
Another assay concerns Setaria faberi (SETFA). Here is the method:
as §1

In another assay the test system is Zea mays (ZEAMX). Here is the method: as §1

On to `CCOC(=O)c1nn(-c2ccnc(Cl)c2)c2cccc(Br)c2c1=O` [Compound 3, ethyl 5-bromo-1-(2-chloro-4-pyridyl)-4-oxo-cinnoline-3-carboxylate], for which, in assay [1], the “percentage damage caused to the plant, AMAPA” value is 1 (1=10-20%). Moreover, the “percentage damage caused to the plant, AMARE” value in assay [2] was 2 (2=21-40%). For the same compound, the “percentage damage caused to the plant, ECHCG” value in assay [3] is reported as 2 (2=21-40%). Besides, in assay [4], the “percentage damage caused to the plant, IPOHE” value is given as 0 (0=0%). Besides, the “percentage damage caused to the plant, SETFA” value with Setaria faberi (SETFA) is listed as 0 (0=0%). For the same compound, the “percentage damage caused to the plant, ZEAMX” value in the assay with Zea mays (ZEAMX) is reported as 0 (0=0%).
As for `CCOC(=O)c1nn(-c2ccc(OC)nc2)c2cccc(Br)c2c1=O` [Compound 4, ethyl 5-bromo-1-(6-methoxy-3-pyridyl)-4-oxo-cinnoline-3-carboxylate], in assay [1], the “percentage damage caused to the plant, AMAPA” value was 1 (1=10-20%). For the same compound, the “percentage damage caused to the plant, AMARE” value in assay [2] is 2 (2=21-40%). In addition, the “percentage damage caused to the plant, ECHCG” value in assay [3] is recorded as 0 (0=0%). Further, in assay [4], the “percentage damage caused to the plant, IPOHE” value is 0 (0=0%). Moreover, in the assay with Setaria faberi (SETFA), the “percentage damage caused to the plant, SETFA” value is 0 (0=0%). The “percentage damage caused to the plant, ZEAMX” value in the assay with Zea mays (ZEAMX) is listed as 0 (0=0%).
With `CCOC(=O)c1nn(-c2cncc(Cl)c2)c2cccc(Br)c2c1=O` [Compound 5, ethyl 5-bromo-1-(5-chloro-3-pyridyl)-4-oxo-cinnoline-3-carboxylate], the “percentage damage caused to the plant, AMAPA” value in assay [1] is recorded as 1 (1=10-20%). Further, the “percentage damage caused to the plant, AMARE” value in assay [2] was 1 (1=10-20%). The “percentage damage caused to the plant, ECHCG” value in assay [3] is 2 (2=21-40%). The “percentage damage caused to the plant, IPOHE” value in assay [4] is reported as 1 (1=10-20%). Moreover, in the assay with Setaria faberi (SETFA), the “percentage damage caused to the plant, SETFA” value is on record as 2 (2=21-40%). In addition, the “percentage damage caused to the plant, ZEAMX” value in the assay with Zea mays (ZEAMX) was 1 (1=10-20%).
As for `CCOC(=O)c1nn(-c2cncnc2)c2cccc(Br)c2c1=O` [Compound 8, ethyl 5-bromo-4-oxo-1-pyrimidin-5-yl-cinnoline-3-carboxylate], the “percentage damage caused to the plant, AMAPA” value in assay [1] is given as 0 (0=0%). In addition, the “percentage damage caused to the plant, AMARE” value in assay [2] is 0 (0=0%). Moreover, in assay [3], the “percentage damage caused to the plant, ECHCG” value is recorded as 0 (0=0%). The “percentage damage caused to the plant, IPOHE” value in assay [4] is given as 0 (0=0%). In addition, in the assay with Setaria faberi (SETFA), the “percentage damage caused to the plant, SETFA” value is reported as 0 (0=0%). For the same compound, the “percentage damage caused to the plant, ZEAMX” value in the assay on Zea mays (ZEAMX) is given as 0 (0=0%).
As to `CCOC(=O)c1nn(-c2ccnc(OC)c2)c2cccc(Br)c2c1=O` [Compound 9, ethyl 5-bromo-1-(2-methoxy-4-pyridyl)-4-oxo-cinnoline-3-carboxylate], the “percentage damage caused to the plant, AMAPA” value in assay [1] is recorded as 1 (1=10-20%). The “percentage damage caused to the plant, AMARE” value in assay [2] was 1 (1=10-20%). Besides, the “percentage damage caused to the plant, ECHCG” value in assay [3] is 1 (1=10-20%). The “percentage damage caused to the plant, IPOHE” value in assay [4] was 0 (0=0%). Besides, the “percentage damage caused to the plant, SETFA” value with Setaria faberi (SETFA) is 0 (0=0%). Moreover, the “percentage damage caused to the plant, ZEAMX” value with Zea mays (ZEAMX) is given as 1 (1=10-20%).
With `CCOC(=O)c1nn(-c2ccc(F)nc2)c2cccc(C#N)c2c1=O` [Compound 11, ethyl 5-cyano-1-(6-fluoro-3-pyridyl)-4-oxo-cinnoline-3-carboxylate], the “percentage damage caused to the plant, AMAPA” value in assay [1] is 0 (0=0%). Moreover, in assay [2], the “percentage damage caused to the plant, AMARE” value is 0 (0=0%). In addition, the “percentage damage caused to the plant, ECHCG” value in assay [3] is recorded as 2 (2=21-40%). In assay [4], the “percentage damage caused to the plant, IPOHE” value was 0 (0=0%). The “percentage damage caused to the plant, SETFA” value with Setaria faberi (SETFA) is listed as 0 (0=0%). Further, in the assay with Zea mays (ZEAMX), the “percentage damage caused to the plant, ZEAMX” value is listed as 1 (1=10-20%).
For the compound `CCOC(=O)c1nn(-c2cnc(OC)c(F)c2)c2cccc(Br)c2c1=O` [Compound 22, ethyl 5-bromo-1-(5-fluoro-6-methoxy-3-pyridyl)-4-oxo-cinnoline-3-carbox-ylate], in assay [1], the “percentage damage caused to the plant, AMAPA” value is recorded as 0 (0=0%). Also, the “percentage damage caused to the plant, AMARE” value in assay [2] is listed as 0 (0=0%). Further, the “percentage damage caused to the plant, ECHCG” value in assay [3] is on record as 0 (0=0%). Besides, the “percentage damage caused to the plant, IPOHE” value in assay [4] is listed as 0 (0=0%). For the same compound, the “percentage damage caused to the plant, SETFA” value in the assay on Setaria faberi (SETFA) is listed as 0 (0=0%). Also, the “percentage damage caused to the plant, ZEAMX” value in the assay on Zea mays (ZEAMX) was 0 (0=0%).
For the compound `CCOC(=O)c1nn(-c2cnc3c(c2)OC(F)(F)O3)c2cccc(Br)c2c1=O` [Compound 24, ethyl 5-bromo-1-(2,2-difluoro-[1,3]dioxolo[4,5-b]pyridin-6-yl)-4-oxo-cinnoline-3-carboxylate], the “percentage damage caused to the plant, AMAPA” value in assay [1] is on record as 0 (0=0%). The “percentage damage caused to the plant, AMARE” value in assay [2] is 0 (0=0%). In addition, the “percentage damage caused to the plant, ECHCG” value in assay [3] is 2 (2=21-40%). Besides, in assay [4], the “percentage damage caused to the plant, IPOHE” value is 0 (0=0%). The “percentage damage caused to the plant, SETFA” value with Setaria faberi (SETFA) is 2 (2=21-40%). In the assay with Zea mays (ZEAMX), the “percentage damage caused to the plant, ZEAMX” value is listed as 1 (1=10-20%).
Consider `CCOC(=O)c1nn(-c2cnc(OC)c(C)c2)c2cccc(Br)c2c1=O` [Compound 29, ethyl 5-bromo-1-(6-methoxy-5-methyl-3-pyridyl)-4-oxo-cinnoline-3-carboxylate], for which the “percentage damage caused to the plant, AMAPA” value in assay [1] is 1 (1=10-20%). Further, in assay [2], the “percentage damage caused to the plant, AMARE” value is listed as 2 (2=21-40%). Besides, the “percentage damage caused to the plant, ECHCG” value in assay [3] is 1 (1=10-20%). For the same compound, the “percentage damage caused to the plant, IPOHE” value in assay [4] is listed as 2 (2=21-40%). Also, the “percentage damage caused to the plant, SETFA” value in the assay with Setaria faberi (SETFA) is 0 (0=0%).
Consider `CCOC(=O)c1nn(-c2ncc(Cl)cc2C#N)c2cccc(Br)c2c1=O` [Compound 33, ethyl 5-bromo-1-(5-chloro-3-cyano-2-pyridyl)-4-oxo-cinnoline-3-carboxylate], for which the “percentage damage caused to the plant, AMARE” value in assay [2] was 0 (0=0%). The “percentage damage caused to the plant, ECHCG” value in assay [3] is 1 (1=10-20%). The “percentage damage caused to the plant, IPOHE” value in assay [4] is on record as 1 (1=10-20%). Besides, the “percentage damage caused to the plant, SETFA” value in the assay with Setaria faberi (SETFA) is 1 (1=10-20%). Moreover, in the assay with Zea mays (ZEAMX), the “percentage damage caused to the plant, ZEAMX” value was 0 (0=0%).
As for `CCOC(=O)c1nn(-c2ccc(OC(F)F)nc2)c2cccc(C#N)c2c1=O` [Compound 35, ethyl 5-cyano-1-[6-(difluoromethoxy)-3-pyridyl]-4-oxo-cinnoline-3-carboxylate], the “percentage damage caused to the plant, AMAPA” value in assay [1] is given as 1 (1=10-20%). In addition, the “percentage damage caused to the plant, AMARE” value in assay [2] is 1 (1=10-20%). In assay [3], the “percentage damage caused to the plant, ECHCG” value is reported as 0 (0=0%). In assay [4], the “percentage damage caused to the plant, IPOHE” value is given as 1 (1=10-20%). For the same compound, in the assay on Setaria faberi (SETFA), the “percentage damage caused to the plant, SETFA” value is 0 (0=0%).
As to `CCOC(=O)c1nn(-c2ccnc(OC(F)F)c2)c2cccc(Br)c2c1=O` [Compound 38, ethyl 5-bromo-1-[2-(difluoromethoxy)-4-pyridyl]-4-oxo-cinnoline-3-carboxylate], the “percentage damage caused to the plant, AMAPA” value in assay [1] is given as 1 (1=10-20%). In addition, the “percentage damage caused to the plant, AMARE” value in assay [2] was 2 (2=21-40%). Moreover, the “percentage damage caused to the plant, ECHCG” value in assay [3] is 0 (0=0%). Further, the “percentage damage caused to the plant, IPOHE” value in assay [4] is given as 2 (2=21-40%). For the same compound, in the assay on Setaria faberi (SETFA), the “percentage damage caused to the plant, SETFA” value is 1 (1=10-20%).
